Where “and” joins values, the source holds several entries; their conditions need not be identical. Equal values may be shown once.
Experiments:
[1] = tested on: A549 and H1975 cells; assay: ROS generation, CM-H2DCFDA fluorimetric assay, statements covering both cancer cell lines; type: cell-based, human; conditions: 1 h; for Effect of NAC addition on ROS generation: 20 μM compound, 50 μM NAC; for ROS generation compared with cisplatin, tamoxifen and 5-fluorouracil: both cancer cell types, 20 μM
Procedure: (§1) Then, detached cells were resuspended in 0.5 mL of phosphate-buffered saline (PBS) containing 10 μM·L^–1 fluorescent probe 5-(and-6)-chloromethyl-2′,7′-dichlorodihydrofluorescein diacetate-acetyl ester (CM-H2DCFDA) and incubated for 15 min at 37 °C. Afterward, the incubation cells were centrifuged at 13,000 rpm for 30 s and resuspended in 0.5 mL of PBS. The fluorescence of each sample (index of ROS levels) was read at 488 nm (λexcitation) and 520 nm (λemission). The results were expressed as DCF fluorescence per mg cell proteins normalized vs control.

[2] = tested on: BEAS-2B cells; assay: Crystal violet cell viability / antiproliferative assay, BEAS-2B; type: cell-based, human; conditions: for IC50: nonmalignant human bronchial epithelium BEAS-2B cells, treatment time 72 h
Procedure: (§2) Human non-small-cell lung cancer cell lines A549 and H1975 and the human bronchial epithelial BEAS-2B cell line were purchased from ATCC (Manassas, VA). Cells were cultured in Roswell Park Memorial Institute (RPMI)-1640 media supplemented with 10% v/v fetal bovine serum, 100 U·mL^–1 penicillin, and 100 μg·mL^–1 streptomycin. Cells were grown in a humidified atmosphere at 37 °C and 5% CO2.
(§3) Crystal violet staining was used to assess cell viability. […] After 72 h, the medium was discarded and cells were stained for 30 min with 5% w/v crystal violet solution in 66% v/v methanol, 200 μL per well. After staining, the crystal violet solution was removed, and the 24-well plate was washed with water to eliminate the excess solution. When dried, the plates were photographed. Quantitation of crystal violet staining was performed after solubilizing the dye in 10% acetic acid, 400 μL per well, and reading the absorbance of each well at 540 nm (HT Synergy 96-well microplate reader, Bio-Tek Instruments, Winooski, VT). The relative absorbance of untreated cells was considered as 100% viability; results were expressed as a percentage of viable cells vs untreated cells.

[3] = tested on: A549 cells; assay: Crystal violet cell viability / antiproliferative assay, A549; type: cell-based, human; conditions: for Selectivity index SInd, A549: IC50(BEAS-2B)/IC50(A549); for IC50: human NSCLC A549 cells, treatment time 72 h
Procedure: as §2, §3

[4] = tested on: H1975 cells; assay: Crystal violet cell viability / antiproliferative assay, H1975; type: cell-based, human; conditions: for Selectivity index SInd, H1975: IC50(BEAS-2B)/IC50(H1975); for IC50: human NSCLC H1975 cells, treatment time 72 h
Procedure: as §2, §3

[5] = Cyclic voltammetry in dichloromethane; type: physicochemical; conditions: for KC comproportionation constant: KC = exp(nF/RT)ΔE1/2, 25 °C; for Difference between the formal potentials: first and second oxidation; for E1°′ formal potential / E2°′ formal potential / E3°′ formal potential: vs FcH/[FcH]+, CH2Cl2, 0.1 mol·L–1 [NBu4][B(C6F5)4], 25 °C, scan rate 100 mV·s–1
Procedure: Electrochemical studies of compounds 1a, 1c, 2a, and 2c were carried out using cyclic voltammetry (CV) and square-wave voltammetry (SWV) (Table 1; Figures 5 (compounds 1a, 2a) and S13 (compounds 1c, 2c), see the SI). A solution of [NBu4][B(C6F5)4] (0.1 mol·L^–1) in anhydrous CH2Cl2 was used as the supporting electrolyte.[79] The choice of the supporting electrolyte was motivated by the beneficial properties of [B(C6F5)4]^− ions. In contrast to smaller counter ions such as [Cl]^−, [PF6]^−, [BF4]^−, or [ClO4]^−, [B(C6F5)4]^− tolerates the stabilization of greatly charged species in solution, minimizing undesired ion-pairing effects.[80],[81] The voltammetry experiments were performed at 25 °C. All potentials are referenced to the FcH/[FcH]^+ (Fc = Fe(η^5-C5H4)(η^5-C5H5)) redox couple (E°′ = 0 mV).[82]
Measurements on 1.0 mmol·L^–1 solutions of analytes 1a, 1c, 2a, and 2c in anhydrous dichloromethane solutions, containing 0.1 mol·L^–1 [NBu4][B(C6F5)4] as the supporting electrolyte, were conducted under an atmosphere of argon at 25 °C. A three-electrode cell, which utilized a Pt auxiliary electrode, a glassy carbon working electrode (surface area 0.031 cm^2), and an Ag/Ag^+ (0.01 mol·L^–1 AgNO3) reference electrode, was used as described in refs ([82]) and ([102]−[104]). […] Experimental potentials were referenced against an Ag/Ag^+ reference electrode, but results presented are referenced against the ferrocene [FcH/FcH^+ couple = 220 mV vs Ag/Ag^+, ΔEp = 61 mV; FcH = Fe(η^5-C5H5)2] as an internal standard.[82] When decamethylferrocene [Fc* = Fe(η^5-C5Me5)2] was used as an internal standard, the experimentally measured potentials were converted into Evs FcH/FcH^+ (under our conditions, the Fc*/Fc*^+ couple was at −614 mV vs FcH/FcH^+, ΔEp = 60 mV).

[6] = tested on: A549 cells; assay: ROS generation, CM-H2DCFDA fluorimetric assay, A549; type: cell-based, human; conditions: 20 μM, 1 h
Procedure: as §1

[7] = tested on: H1975 cells; assay: ROS generation, CM-H2DCFDA fluorimetric assay, H1975; type: cell-based, human; conditions: 20 μM, 1 h
Procedure: as §1

[8] = versus cisplatin, tamoxifen, 5-fluorouracil

| SMILES | Effect of NAC addition on ROS generation [1] | IC50 [2] [µM] | Selectivity index SInd, A549 ([3]; 72 h) | IC50 [3] [µM] | Selectivity index SInd, H1975 ([4]; 72 h) | IC50 ([4]; NCI-H1975) [µM] | IC50 [4] [µM] | KC comproportionation constant [5] | Difference between the formal potentials [5] [mV] | E1°′ formal potential [5] | E2°′ formal potential [5] | ROS generated, times more than 1c [6] [times] | ROS generation, times more potent than reference drugs [6, 8] [times] | ROS generated, times more than 1c [7] | ROS generation, times more potent than reference drugs [7, 8] | ROS generation compared with cisplatin, tamoxifen and 5-fluorouracil [1] | Increase of cell viability with NAC compared to cells treated only with compound ([2]; BEAS-2B cells, 20 μM compound, 50 μM NAC, 72 h) | Increase of cell viability with NAC compared to cells treated only with compound ([3]; A549 cells, 20 μM compound, 50 μM NAC, 72 h) | Increase of cell viability with NAC compared to cells treated only with compound ([4]; H1975 cells, 20 μM compound, 50 μM NAC, 72 h) [%] | E3°′ formal potential [5] |
| --- | --- | --- | --- | --- | --- | --- | --- | --- | --- | --- | --- | --- | --- | --- | --- | --- | --- | --- | --- | --- |
| O=c1[nH]cc(F)c(=O)[nH]1 [5-fluorouracil, reference compound] | almost no effect | 6 ± 0.1 | 0.1 | 69 ± 21 | 0.2 | 32 ± 12 |  |  |  |  |  |  |  |  |  |  |  |  |  |  |
| N.N.[Cl][Pt][Cl] [cisplatin, reference compound] | almost no effect | 3 ± 0.1 | 0.02 | 108 ± 12 | 0.7 |  | 4 ± 0.1 |  |  |  |  |  |  |  |  |  |  |  |  |  |
| Cc1cn([C@H]2C[C@H](n3nnc(-[c-]4cccc4)c3C#C[c-]3cccc3)[C@@H](CO)O2)c(=O)[nH]c1=O.[Fe+2].[Fe+2].c1cc[cH-]c1.c1cc[cH-]c1 [compound 1a, 3′-Deoxy-3′-(4-ferrocenyl-5-ethynylferrocenyl-1H-1,2,3-triazol-1-yl)thymidine] |  | 469 ± 10 | 8.2 | 57 ± 18 | 93.8 |  | 5 ± 2 | 2412 | 200 | 80 mV and 80 (60) mV | 280 mV and 280 (66) mV | ~2.5 | ~2.5 | about 1.6 times | about 2 times | more effective ROS generators | analogous increase | analogous increase | ~20 |  |
| Cc1cn([C@H]2C[C@H](n3cc(-[c-]4cccc4)nn3)[C@@H](CO)O2)c(=O)[nH]c1=O.[Fe+2].c1cc[cH-]c1 [compound 1c, 3′-Deoxy-3′-(4-ferrocenyl-1H-1,2,3-triazol-1-yl)thymidine] |  | 215 ± 7 | 0.9 | 230 ± 13 | 0.5 |  | 456 ± 17 |  |  | 60 mV and 60 (66) mV |  |  |  |  |  | more effective ROS generators |  |  |  |  |
| O=C(CCn1nnc(-[c-]2cccc2)c1C#C[c-]1cccc1)[c-]1cccc1.[Fe+2].[Fe+2].[Fe+2].c1cc[cH-]c1.c1cc[cH-]c1.c1cc[cH-]c1 [compound 2a, 1-(3-Propionylferrocenyl)-4-ferrocenyl-5-ethynylferrocenyl-1H-1,2,3-triazole] |  | 257 ± 5 | 1.4 | 184 ± 7 | 3.0 |  | 84 ± 5 | 9426 | 235 | 45 mV and 45 (60) mV | 280 mV and 280 (61) mV |  |  |  |  |  |  |  |  | 365 mV and 365 (63) mV |
| O=C(CCn1cc(-[c-]2cccc2)nn1)[c-]1cccc1.[Fe+2].[Fe+2].c1cc[cH-]c1.c1cc[cH-]c1 [compound 2c, 1-(3-Propionyloferrocenyl)-4-ferrocenyl-1H-1,2,3-triazole] |  | 198 ± 7 | 0.2 | 805 ± 72 | 1.6 |  | 122 ± 45 |  |  | 20 mV and 20 (61) mV |  |  |  |  |  |  |  |  |  | 330 mV and 330 (67) mV |
| CC/C(=C(\c1ccccc1)c1ccc(OCCN(C)C)cc1)c1ccccc1 [tamoxifen] | almost no effect |  |  |  |  |  |  |  |  |  |  |  |  |  |  |  |  |  |  |  |

Source: article PMC9490837, “Electronic Coupling in 1,2,3-Triazole Bridged Ferrocenes and Its Impact on Reactive Oxygen Species Generation and Deleterious Activity in Cancer Cells” (Inorganic Chemistry, 2022)
